Measurements as given in publication PMC12802961 (Journal of Antimicrobial Chemotherapy, 2025).

Legend:
KPC P. aeruginosa = KPC P. aeruginosa strain of previous animal study, cited from earlier work
K. pneumoniae 59 = assay: Neutropenic murine thigh infection model; assay type: in vivo, Klebsiella pneumoniae
Experimental: (§1) All dosing regimens were performed in at least two animals per dosing regimen.
(§2) At t = 0 h, 2 h after infection, two mice were humanely euthanized to determine the initial number of cfu/thigh just before treatment. […] Subsequently, thighs were homogenized using the Ultra-Turrax homogenizer (IKA Labortechnik, Germany). For each thigh 10-fold dilution series were prepared and 3 × 10 µL per dilution were plated (Chromagar, bioMérieux, NL). The following day, colonies were counted and the number of cfu/thigh was calculated.
(§3) Free drug concentrations were used in all calculations.

KPC K. pneumoniae = KPC K. pneumoniae strain of previous animal study, cited from earlier work
P. aeruginosa 132 [1] = assay: Neutropenic murine thigh infection model; assay type: in vivo, Pseudomonas aeruginosa
Experimental: as §1, §2, §3

P. aeruginosa 106 [2] = assay: Neutropenic murine thigh infection model; assay type: in vivo, Pseudomonas aeruginosa
Experimental: as §1, §2, §3

E. coli 52 = assay: Checkerboard broth microdilution MIC of cefepime alone and with taniborbactam; assay type: cell-based, Escherichia coli
From the text: (§4) Four previously well-characterized cefepime-resistant isolates, namely one ESBL-producing E. coli, one ESBL-producing K. pneumoniae and two P. aeruginosa (one VIM- and one AmpC constitutively -producing), were used.

P. aeruginosa 132 [3] = assay: as above; assay type: cell-based, Pseudomonas aeruginosa
From the text: as §4

P. aeruginosa 106 [4] = assay: as above; assay type: cell-based, Pseudomonas aeruginosa
From the text: as §4

[5] = Protein binding, equilibrium dialysis chamber, LC-MS/MS; assay type: in vitro ADME
From the text: […]. […] […].
. […] Free drug concentrations were used in all calculations. […]

[6] = human simulated regimen of cefepime 2 g q8h as 2 h infusion; cited from earlier work
[7] = test system: two ESBL-producing Enterobacterales and one AmpC- and one VIM-producing P. aeruginosa isolates; assay: Checkerboard broth microdilution MIC, all four strains together; assay type: cell-based
From the text: as §4

[8] = cefepime monotherapy q2h, extrapolated
[9] = cefepime monotherapy q2h s.c. 24 h
[10] = cefepime monotherapy, extrapolated

## CO/N=C(\C(=O)N[C@@H]1C(=O)N2C(C(=O)[O-])=C(C[N+]3(C)CCCC3)CS[C@H]12)c1csc(N)n1 [cefepime, Cefepime]
KPC P. aeruginosa
  unpotentiated cefepime MIC: > 512 mg/L
KPC P. aeruginosa; with taniborbactam
  potentiated cefepime MIC: 4 mg/L
K. pneumoniae 59; cefepime monotherapy
  Stasis: q2h dose: 117.8 mg/kg
K. pneumoniae 59; cefepime monotherapy q2h
  Stasis: %ƒT > MIC: 0.0%
K. pneumoniae 59; cefepime monotherapy q2h, belongs to extrapolated dose
  1 log10 kill: %ƒT > MIC: 15.9%
K. pneumoniae 59; [8]
  1 log10 kill: Total daily dose, mg/kg: (4371.3) mg/kg
K. pneumoniae 59; [9]
  Stasis: Total daily dose: 1413.4 mg/kg
K. pneumoniae 59; [10]
  1 log10 kill: q2h dose, mg/kg: (364.0) mg/kg
K. pneumoniae 59; cefepime q2h 4 mg/kg, potMIC 0.5 mg/L (with 4 mg/L taniborbactam)
  Cefepime %fT > potMIC: 69.30%
KPC K. pneumoniae
  unpotentiated cefepime MIC: > 512 mg/L
KPC K. pneumoniae; with taniborbactam
  potentiated cefepime MIC: 2 mg/L
P. aeruginosa 132 [1]; cefepime monotherapy
  1 log10 kill: q2h dose, mg/kg: 59.9 mg/kg
P. aeruginosa 132 [1]; cefepime monotherapy q2h
  1 log10 kill: %ƒT > MIC: 32.4%
  1 log10 kill: Total daily dose, mg/kg: 718.3 mg/kg
  Stasis: %ƒT > MIC: 8.9%
P. aeruginosa 132 [1]; [9]
  Stasis: Total daily dose: 180.8 mg/kg
P. aeruginosa 132 [1]; cefepime q2h 8 mg/kg, potMIC 1 mg/L (with 4 mg/L taniborbactam)
  Cefepime %fT > potMIC: 46.10%
P. aeruginosa 106 [2]; [8]
  1 log10 kill: %ƒT > MIC: (47.4) %
  1 log10 kill: Total daily dose, mg/kg: (3484.4) mg/kg
  Stasis: %ƒT > MIC: (36.9) %
P. aeruginosa 106 [2]; cefepime monotherapy q2h s.c. 24 h, extrapolated
  Stasis: Total daily dose, mg/kg: (1901.6) mg/kg
P. aeruginosa 106 [2]; [10]
  1 log10 kill: q2h dose, mg/kg: (290.4) mg/kg
  Stasis: q2h dose, mg/kg: (158.5) mg/kg
P. aeruginosa 106 [2]; cefepime q2h 64 mg/kg, MIC 32 mg/L
  Cefepime %fT > MIC: 22.10%
E. coli 52; E. coli 52, +taniborbactam 0.03 mg/L
  Cefepime MIC at taniborbactam 0.03 mg/L: 0.5 mg/L
E. coli 52; E. coli 52, +taniborbactam 0.06 mg/L
  Cefepime MIC at taniborbactam 0.06 mg/L: 0.5 mg/L
E. coli 52; E. coli 52, +taniborbactam 0.125 mg/L
  Cefepime MIC at taniborbactam 0.125 mg/L: 0.25 mg/L
E. coli 52; E. coli 52, +taniborbactam 0.25 mg/L
  Cefepime MIC at taniborbactam 0.25 mg/L: 0.125 mg/L
E. coli 52; E. coli 52, +taniborbactam 0.5 mg/L
  Cefepime MIC at taniborbactam 0.5 mg/L: 0.06 mg/L
E. coli 52; E. coli 52, +taniborbactam 1 mg/L
  Cefepime MIC at taniborbactam 1 mg/L: 0.125 mg/L
E. coli 52; E. coli 52, +taniborbactam 2 mg/L
  Cefepime MIC at taniborbactam 2 mg/L: 0.06 mg/L
E. coli 52; E. coli 52, +taniborbactam 4 mg/L
  Cefepime MIC at taniborbactam 4 mg/L (potMIC): 0.06 mg/L
E. coli 52; Escherichia coli, 52, read-out: Cefepime MIC (mg/L) alone
  MIC: 32 mg/L
P. aeruginosa 132 [3]; P. aeruginosa 132, +taniborbactam 0.03 mg/L
  Cefepime MIC at taniborbactam 0.03 mg/L: 16 mg/L
P. aeruginosa 132 [3]; P. aeruginosa 132, +taniborbactam 0.06 mg/L
  Cefepime MIC at taniborbactam 0.06 mg/L: 16 mg/L
P. aeruginosa 132 [3]; P. aeruginosa 132, +taniborbactam 0.125 mg/L
  Cefepime MIC at taniborbactam 0.125 mg/L: 8 mg/L
P. aeruginosa 132 [3]; P. aeruginosa 132, +taniborbactam 0.25 mg/L
  Cefepime MIC at taniborbactam 0.25 mg/L: 4 mg/L
P. aeruginosa 132 [3]; P. aeruginosa 132, +taniborbactam 0.5 mg/L
  Cefepime MIC at taniborbactam 0.5 mg/L: 2 mg/L
P. aeruginosa 132 [3]; P. aeruginosa 132, +taniborbactam 1 mg/L
  Cefepime MIC at taniborbactam 1 mg/L: 1 mg/L
P. aeruginosa 132 [3]; P. aeruginosa 132, +taniborbactam 2 mg/L
  Cefepime MIC at taniborbactam 2 mg/L: 1 mg/L
P. aeruginosa 132 [3]; P. aeruginosa 132, +taniborbactam 4 mg/L
  Cefepime MIC at taniborbactam 4 mg/L (potMIC): 1 mg/L
P. aeruginosa 132 [3]; Pseudomonas aeruginosa, 132, read-out: Cefepime MIC (mg/L) alone
  MIC: 16 mg/L
P. aeruginosa 106 [4]; P. aeruginosa 106, +taniborbactam 0.03 mg/L
  Cefepime MIC at taniborbactam 0.03 mg/L: 32 mg/L
P. aeruginosa 106 [4]; P. aeruginosa 106, +taniborbactam 0.06 mg/L
  Cefepime MIC at taniborbactam 0.06 mg/L: 32 mg/L
P. aeruginosa 106 [4]; P. aeruginosa 106, +taniborbactam 0.125 mg/L
  Cefepime MIC at taniborbactam 0.125 mg/L: 32 mg/L
P. aeruginosa 106 [4]; P. aeruginosa 106, +taniborbactam 0.25 mg/L
  Cefepime MIC at taniborbactam 0.25 mg/L: 16 mg/L
P. aeruginosa 106 [4]; P. aeruginosa 106, +taniborbactam 0.5 mg/L
  Cefepime MIC at taniborbactam 0.5 mg/L: 16 mg/L
P. aeruginosa 106 [4]; P. aeruginosa 106, +taniborbactam 1 mg/L
  Cefepime MIC at taniborbactam 1 mg/L: 16 mg/L
P. aeruginosa 106 [4]; P. aeruginosa 106, +taniborbactam 2 mg/L
  Cefepime MIC at taniborbactam 2 mg/L: 8 mg/L
P. aeruginosa 106 [4]; P. aeruginosa 106, +taniborbactam 4 mg/L
  Cefepime MIC at taniborbactam 4 mg/L (potMIC): 4 mg/L
P. aeruginosa 106 [4]; Pseudomonas aeruginosa, 106, read-out: Cefepime MIC (mg/L) alone
  MIC: 32 mg/L
[5]
  fraction unbound: 0.8
[6]
  fAUC0-24: ~787.8 mg·h/L
[7]; +taniborbactam 4 mg/L
  Cefepime MIC in the presence of 4 mg/L taniborbactam, all strains: 0.06 to 4 mg/L
[7]; Pseudomonas aeruginosa, read-out: Cefepime MIC, all strains, cefepime alone
  MIC: 16 to 256 µg/mL
[7]; cefepime alone
  Cefepime MIC, all strains: > 8 mg/L
